From patent US20250161311A1, “SMALL MOLECULE DIRECTED URINARY BLADDER TISSUE REGENERATION” (Northwestern University, priority 2022, published 2025) come the findings set out here.

In data set [1] the test system is rat bladders. Nature of the data set: Rat bladder urodynamic studies (UDS). Format: in vivo, nude rats. As to conditions: for bladder compliance: compliant >60%; for leak point pressure (LPP): normal rat ~40. The procedure:
SR1 Induces Bladder Tissue Regeneration in vivo—In the following in vivo studies, nude rats underwent an approximate 60-70% bladder cystectomy and were augmented with a POC scaffold and then: 1) instilled with saline (Saline); 2) instilled with 300 nM SR1 (SR1:1×/week for 2 weeks); or 3) seeded with human MSC/CD34+HSCs (Cell-Seeded). Animals were sacrificed 10 weeks post-augmentation. The inventors have developed, characterized, and successfully utilized CBBs (POC) in bladder regenerative settings over the last 10 years. The inventors' established human MSC/CD34+HSC seeded POC scaffold bladder augmentation model was utilized in this study to directly compare specific regenerative bladder biological metrics against SR1 treated animals to determine whether SR1 could be used in lieu of MSCs and CD34+HSCs for bladder tissue regeneration. Rat Bladder Urodynamic Studies (UDS) Rat bladders were filled with saline until a bladder contraction occurred (pre- and 10 weeks post-augmentation). Bladder pressures rose during the filling until bladder contractions occurred at intravesical pressures of 25-40 cm H2O. Saline instilled animals led to a slight decrease in voiding pressures and decreased bladder compliance (FIG. 4A). SR1 instilled animals led to a decrease in intravesical pressures during voiding from 40 to 25 cm H2O (pre-augmentation to post-augmentation, respectively) with increased bladder compliance. […] With regards to leak point pressures (LPP); Saline, SR1 and Cell-Seeded groups (pre/post aug) were: 39.49±1.35/46.48±2.42; 39.66±0.81/37.1±1.47; 38.6±1.41/35.5±2.40 cm H2O, respectively. Compliance values for the same groups were: 68.77±2.49/39.3±8.55; 69.57±1.95/72.38±3.13; 46.23±12.9/89.59±1.32 percent, respectively. Normal LPP for rat is ˜40 cm H2O and compliant bladders are defined at >60%. Percent bladder capacity at 10 weeks was also measured (FIG. 4B).

The subject of data set [2] is primary human UCs. Nature of the data set: SR1 treatment of primary human urothelial cells (UCs) in vitro, AhR/Ki-67 co-staining and manual counting. As to conditions: for peak number of nAhR+UCs: D7, means±SE. Format: cell-based. The procedure: SR1 Treatment of UCs in vitro Equivalent numbers of primary human UCs were treated once with SR1 (150 nM, 200 nM, 250 nM, or untreated) and allowed to grow in culture for 13 days. […] An assortment of organ specific stem cells initially maintain a high nucleus/cytoplasm ratio which gradually decreases as the cell differentiates.

A short description of data set [3]: In vitro release profile of SR1 coupled to POC scaffolds, measured by spectroscopy. The data set is classed as physicochemical. The procedure:
SR1 was coupled to POC (poly 1,8 octane diol co-citrate) scaffolds and its in vitro release profile was measured by spectroscopy, based upon the aromatic ring structures contained within SR1 (FIG. 5A). […] For pilot in vivo studies, rats underwent an ˜70% cystectomy followed by augmentation with POC or POC/SR1 (1 mM SR1). POC animals were instilled with saline once at the beginning of the study and all animals were euthanized at 4 weeks post-augmentation. […] Therefore, the inventor concludes that coupling of SR1 to a scaffold, e.g., a solid support, is an effective means of delivery of SR1 to subjects in need thereof.

Data set [4] deals with regenerated bladder tissue. Nature of the data set: Regenerated bladder tissue muscle content (Trichrome) and urothelium width after cystectomy and POC scaffold augmentation. The conditions noted are these: 10 weeks post-augmentation, means±SE. The data set is classed as in vivo, nude rats. The procedure: SR1 Induces Bladder Tissue Regeneration in vivo—In the following in vivo studies, nude rats underwent an approximate 60-70% bladder cystectomy and were augmented with a POC scaffold and then: 1) instilled with saline (Saline); 2) instilled with 300 nM SR1 (SR1:1×/week for 2 weeks); or 3) seeded with human MSC/CD34+HSCs (Cell-Seeded). Animals were sacrificed 10 weeks post-augmentation. The inventors have developed, characterized, and successfully utilized CBBs (POC) in bladder regenerative settings over the last 10 years. The inventors' established human MSC/CD34+HSC seeded POC scaffold bladder augmentation model was utilized in this study to directly compare specific regenerative bladder biological metrics against SR1 treated animals to determine whether SR1 could be used in lieu of MSCs and CD34+HSCs for bladder tissue regeneration. Muscle to collagen ratios are indicative of overall bladder tissue regeneration. […] Normal bladder tissue has an approximate 1:1 to muscle to collagen. There was no statistical difference with regards to muscle regeneration between the two groups. […] This included abnormal voiding, incontinence and subsequent infection, bladder distension, ureteral or renal dysfunction, and […]. […]

The test system of data set [5] is regenerated bladder tissue. Nature of the data set: Bladder tissue vascularization and peripheral nerve regeneration in vivo (IF staining). Further details: species or system nude rats. As to conditions: 10 weeks post-augmentation. The procedure: SR1 Induces Bladder Tissue Regeneration in vivo—In the following in vivo studies, nude rats underwent an approximate 60-70% bladder cystectomy and were augmented with a POC scaffold and then: 1) instilled with saline (Saline); 2) instilled with 300 nM SR1 (SR1:1×/week for 2 weeks); or 3) seeded with human MSC/CD34+HSCs (Cell-Seeded). Animals were sacrificed 10 weeks post-augmentation. The inventors have developed, characterized, and successfully utilized CBBs (POC) in bladder regenerative settings over the last 10 years. The inventors' established human MSC/CD34+HSC seeded POC scaffold bladder augmentation model was utilized in this study to directly compare specific regenerative bladder biological metrics against SR1 treated animals to determine whether SR1 could be used in lieu of MSCs and CD34+HSCs for bladder tissue regeneration. Bladder instillation of SR1 promoted vascularization of augmented bladders along the periphery and core of grafts. […] The level of tissue vascularization may be increased by changing the concentration of SR1 instilled and/or the dosing regimen.

SMILES strings stand for the structures. Several values for one entry are separate records, joined by “and”; a condition that tells them apart may be missing. Equal values may be shown once.

Consider `CC(C)n1cnc2c(NCCc3ccc(O)cc3)nc(-c3csc4ccccc34)nc21` [SR1, stemregenin 1], for which the results for the “intravesical pressure during voiding” value in data set [1] (10 weeks post-augmentation) and in data set [1] (pre-augmentation (baseline)) were 25 cm H2O and 40 cm H2O, respectively. In addition, the bladder compliance in data set [1] (10 weeks post-augmentation) was 72.38±3.13%; in data set [1] (pre-augmentation (baseline)) it was 69.57±1.95%. In addition, the figures for the “leak point pressure (LPP)” value in data set [1] (10 weeks post-augmentation) and in data set [1] (pre-augmentation (baseline)) were 37.1±1.47 cm H2O and 39.66±0.81 cm H2O, respectively. The “peak number of nAhR+UCs” value in data set [2] (150 nM SR1, treated once) was found to be 159.75±8.44 cells; in data set [2] (200 nM SR1, treated once), 310.75±28.73 cells; in data set [2] (250 nM SR1, treated once) it was 342.75±20.97 cells. For the same compound, the “expansion of nAhR+/Ki-67+UCs compared to untreated” value in data set [2] (D7) is listed as around 6 ×. In addition, the “UCs with higher nucleus/cytoplasm ratios” value in data set [2] (nAhR+UCs, D7, 200 nM) was “modest increase”. The “release profile of SR1 from POC scaffolds” value in data set [3] (1 or 2 mM starting concentrations, over 30 days, compared to POC scaffolds in saline) was “gradual release”. The “cumulative release of SR1 from POC scaffolds, fold higher with 2 mM SR1” value in data set [3] (30 day time point, 2 mM versus 1 mM starting concentration) is listed as around 1.4 ×. Moreover, the “muscle content of regenerated bladder tissue” value in data set [4] (SR1 300 nM instilled 1×/week for 2 weeks) is ~50% and 47.00±1.81%. For the same compound, the urothelium width in data set [4] (unmanipulated rats 50-70 μm) worked out at 52.98±2.55 μm. In data set [5] (means±SE), the “vascularization of regenerated bladder tissue” value amounted to 3.60±0.24%. Moreover, in data set [5] (core and throughout the graft), the “peripheral nerve regeneration (βIII tubulin IF staining)” value is reported as “abundance of peripheral nerve regeneration”.
